From patent US11905231B1, “Solid forms, salts and polymorphs of anti-fibrotic compounds” (Certa Therapeutics Pty Ltd, priority 2023, dated 2024)
Structures can show the parent of a compound that is named as a salt. Where two headings read alike, the source gives them in different places.

Experiments:
[1] = Thermogravimetric Analysis (TGA) weight loss; format: physicochemical; conditions: for Weight loss (TGA): when heated from about 25° C. to about 120° C. (text)
[2] = Stability of the ethanolamine salt under accelerated and long-term storage conditions; format: physicochemical; conditions: for API (Purity_) / Total Impurity: HPLC
Method: The samples were assayed by HPLC at the start, after 1 week, and after 2 weeks at the indicated accelerated storage conditions, or after 36 days at room temperature storage. For HPLC analysis, the samples were diluted with 10 mL of TFA/DMSO/ACN (0.1/10/90, v/v/v) to ˜1 mg/mL and analyzed by HPLC.
The samples were also analyzed by XRPD at initial, 1 week, 2 weeks and 36 day time points.

in vivo = conditions: rat, in vivo, po, 20 mg/kg
Method: Bioavailability is determined by the equation AUC=F·D/CLT, wherein AUC is the area under the plot of plasma concentration, F is the absolute bioavailability, D is the dose, and CLT is the total clearance.
The rats received a single oral dose of 20 mg/kg body weight (b.w.). The doses were prepared as a 2.0 mg/mL suspension in a vehicle of 20 mM Na2HPO4 buffer containing 5% (v/v) DMSO, 0.4% (v/v) 1M NaOH and 0.4% (v/v) Tween 80 and a dose volume of 10 mL/kg b.w.
Pharmacokinetic analysis was performed on the average plasma concentration for each time point.

[3] = 37° C.
Method: (§1) The term “FaSSIF media” refers to Fasted State Simulated Intestinal Fluid media prepared using FaSSIF powder and buffer concentrate obtained from the commercial source Biorelevant (London, UK, biorelevant.com). The FaSSIF powder contains sodium taurocholate, lecithin, sodium chloride, monobasic sodium phosphate and sodium hydroxide. The FaSSIF media is prepared as described at https://biorelevant.com/learning_center/what-is-fassif/. Briefly the pH6.5 buffer containing 0.42 g of NaOH, 3.95 g of NaH2PO4·H2O and 6.19 g of NaCl was dissolved in 0.9 L of purified water and the pH of the solution was adjusted to 6.5 using sodium hydroxide 1N or hydrochloric acid 1N and made up to volume (1 L) with purified water at room temperature. Dissolve 2.24 g of the FaSSIF powder in 0.5 L of the pH6.5 buffer, stirring until the powder is completely dissolved, and then make up to volume (1 L) with buffer at room temperature.
(§2) The samples were stirred using a magnetic stirrer at 37° C. […] The samples were filtered via centrifugation (12,000 rpm, 5 min). The supernatant was diluted (2×) with HPLC grade solvent and analyzed by HPLC.
HPLC gradient was as follows:
(§3) The pH 1.2, pH 4.5, and pH 6.8 media were prepared as standard aqueous buffered solutions following USP <39>.
(§4) As used herein, the term “FaSSIF media” means Fasted Stated Simulated Intestinal Fluid media prepared according to the method known in the art.

physchem = conditions: 37 °C, thermodynamic from solid; for solubility at 1 h: 1 h Solubility; for solubility at 24 h: 24 h Solubility
Method: as §1, §2
HPLC gradient was as follows:
as §3, §4

[4] = Dynamic Vapor Sorption (DVS) hygroscopicity; conditions: at 80% RH, 25° C., measured during 0% RH to 95% RH increase
Source text: The change in water content is recited as a % change in mass of the starting sample and all such water sorption (DVS) values recited herein will be understood to explicitly include numerical values within a +/−0.2% variance.
The humidity is held constant at 30% RH until the mass change of the sample reaches equilibrium, as determined by the rate of change of weight being 0.01%/minute or less. The humidity is then changed to the next step value and the consequent mass change measured, and so on.
The hygroscopicity values recited herein refer to total water gain since the start of the experiment only and so may not necessarily be equivalent to the actual total water content of the sample.

[5] = 40° C., 75% RH, open vial, 1 week
[6] = 40° C., 75% RH, open vial, 2 weeks
[7] = pH 1.2 aqueous buffer, pH 1.2, simulated gastric fluid, pH 1.2 medium
[8] = pH 4.5 aqueous buffer, pH 4.5 medium

## C#CCOc1ccc(/C=C/C(=O)Nc2ccccc2C(=O)O)cc1OC [Ethanolamine salt]
[1]; from 0° C. to 120° C.
  Weight loss by TGA: 0.10% from 0 °C to
[1]; from r.t. to 120° C.
  Weight loss by TGA: 0.10% from r.t. to
[1]; from r.t. to 350° C. (or to decomposition if lower)
  Total weight loss by TGA: 0.10% total weight
[1]; listed as ethanolamine
  Weight loss (TGA): 0.10%
[1]; listed as ethanolamine salt
  Weight loss (TGA): about 0.1%
[2]; [5]
  Appearance: White
  API (Purity_): 99.73%
  Total Impurity: 0.27%
[2]; [6]
  Appearance: White
  API (Purity_): 99.72%
  Total Impurity: 0.28%
[2]; 60° C., open vial, 1 week
  Appearance: White
  API (Purity_): 99.73%
  Total Impurity: 0.27%
[2]; 60° C., open vial, 2 weeks
  Appearance: White
  API (Purity_): 99.71%
  Total Impurity: 0.29%
[2]; Initial
  Appearance: White
  API (Purity_): 99.75%
  Total Impurity: 0.26%
[2]; accelerated storage (1-2 weeks) or long-term storage (room temperature, 36 days), HPLC and XRPD
  Changes in impurity content or crystallinity: no significant changes
In vivo; Sprague-Dawley
  AUCExtr: 1.92%
  AUCInf: 405.006 µg·h/mL
  AUClast: 396.535 µg·h/mL
  tmax: 1.00 h
In vivo; Sprague-Dawley, 0.5 h
  Mean concentration (plasma): 37133 ng/mL
In vivo; Sprague-Dawley, 1 h
  Mean concentration (plasma): 52733 ng/mL
In vivo; Sprague-Dawley, 2 h
  Mean concentration (plasma): 40300 ng/mL
In vivo; Sprague-Dawley, 4 h
  Mean concentration (plasma): 25900 ng/mL
In vivo; Sprague-Dawley, 8 h
  Mean concentration (plasma): 18767 ng/mL
In vivo; Sprague-Dawley, 24 h
  Mean concentration (plasma): 1262 ng/mL
In vivo; Sprague-Dawley, t1/2
  half-life: 4.32 h
In vivo
  Plasma concentration at 24 h post dose compared to the other tested compounds: highest plasma concentrations
[3]; FaSSIF (pH 7.5)
  1 h Solubility: >7990 µg/mL
  24 h Solubility: >7990 µg/mL
[3]; FaSSIF
  1 h Solubility: 238 µg/mL
  24 h Solubility: 263 µg/mL
[3]; FeSSIF (pH 7.8)
  1 h Solubility: >8020 µg/mL
  24 h Solubility: >8020 µg/mL
[3]; FeSSIF
  1 h Solubility: 12 µg/mL
  24 h Solubility: 25 µg/mL
[3]; pH 6.8 medium
  1 h Solubility: 116 µg/mL
physchem; [7]
  solubility at 1 h: 8 µg/mL
  solubility at 24 h: 3 µg/mL
physchem; [8]
  solubility at 1 h: 28 µg/mL
  solubility at 24 h: 5 µg/mL
physchem; pH 6.8 aqueous buffer, pH 6.8 medium
  solubility at 24 h: 88 µg/mL
[4]
  Hygroscopicity by DVS: 0.49%
[4]; listed as ethanolamine
  Hygroscopicity by DVS: 0.49%
[4]; listed as ethanolamine salt
  Hygroscopicity by DVS: about 0.49%
